In publication PMC10089224, “A macrocyclic peptide inhibitor traps MRP1 in a catalytically incompetent conformation” (Proceedings of the National Academy of Sciences of the …, 2023):
Entries after “also recorded” stand apart in the source; their conditions may differ. Where a SMILES comes first, the peptide text is derived from it. Bridges are numbered along the chain shown (N, C = ends). [ ]: non-standard residue; d: D form.

Experiments:
Pgp = assay: ATPase activity of detergent-solubilized Pgp, inhibition by CPI1; format: biochemical, human; settings: Pgp 0.5 µM, 4 mM ATP, CPI1 25-fold molar excess; mean ± SE of three separate measurements
Experimental: (§1) Fig. 1. Identification of an MRP1-specific inhibitor. (A) Selection strategy for novel cyclic peptide MRP1 ligands. eGFP: enhanced green fluorescent protein; Nb: anti-eGFP nanobody. (B) CPI1 composition. The first residue in the sequence (Ac^DY1, yellow) is covalently bonded to the 17th residue (C17, green) via a thioether linkage. […] All values reported as the mean ± standard error (SE) of three separate measurements. The statistical significance was calculated using unpaired, parametric, two-sided t tests. Labels: not significant (n.s.), P < 0.05 (*), P < 0.01 (**), P < 0.001 (***) P < 0.0001 (****). […] (D) Dose–response curves of the basal and LTC4-stimulated ATPase activity of bMRP1. Rates of ATP hydrolysis were normalized to maximal activity. Data were fit to a modified version of the quadratic binding equation to account for free ligand depletion (Materials and Methods).
(§2) Bovine and human MRP1, as well as human Pgp, were expressed and purified as described previously. […]
(§3) ATPase activity was measured by recording the rate of NADH consumption during ATP regeneration from ADP. […] NADH consumption was measured by monitoring the rate of NADH fluorescence depletion (λex/λem 340/445 nm) using an Infinite M1000 microplate reader (Tecan) at 28 °C. […]

bMRP1 = target: T1, bMRP1 (Bos taurus, UniProt Q8HXQ5); assay: ATPase activity of detergent-solubilized bMRP1, inhibition by CPI1 (basal and LTC4-stimulated); format: biochemical, bovine
T1 construct: eGFP (C, cleaved yes); PreScission protease site (remnant after cleavage) (C); made in house; host or cells: HEK293S GnTI- cells infected with baculovirus (BacMam) made in Sf9 cells
T1 sequence (Q8HXQ5 whole entry): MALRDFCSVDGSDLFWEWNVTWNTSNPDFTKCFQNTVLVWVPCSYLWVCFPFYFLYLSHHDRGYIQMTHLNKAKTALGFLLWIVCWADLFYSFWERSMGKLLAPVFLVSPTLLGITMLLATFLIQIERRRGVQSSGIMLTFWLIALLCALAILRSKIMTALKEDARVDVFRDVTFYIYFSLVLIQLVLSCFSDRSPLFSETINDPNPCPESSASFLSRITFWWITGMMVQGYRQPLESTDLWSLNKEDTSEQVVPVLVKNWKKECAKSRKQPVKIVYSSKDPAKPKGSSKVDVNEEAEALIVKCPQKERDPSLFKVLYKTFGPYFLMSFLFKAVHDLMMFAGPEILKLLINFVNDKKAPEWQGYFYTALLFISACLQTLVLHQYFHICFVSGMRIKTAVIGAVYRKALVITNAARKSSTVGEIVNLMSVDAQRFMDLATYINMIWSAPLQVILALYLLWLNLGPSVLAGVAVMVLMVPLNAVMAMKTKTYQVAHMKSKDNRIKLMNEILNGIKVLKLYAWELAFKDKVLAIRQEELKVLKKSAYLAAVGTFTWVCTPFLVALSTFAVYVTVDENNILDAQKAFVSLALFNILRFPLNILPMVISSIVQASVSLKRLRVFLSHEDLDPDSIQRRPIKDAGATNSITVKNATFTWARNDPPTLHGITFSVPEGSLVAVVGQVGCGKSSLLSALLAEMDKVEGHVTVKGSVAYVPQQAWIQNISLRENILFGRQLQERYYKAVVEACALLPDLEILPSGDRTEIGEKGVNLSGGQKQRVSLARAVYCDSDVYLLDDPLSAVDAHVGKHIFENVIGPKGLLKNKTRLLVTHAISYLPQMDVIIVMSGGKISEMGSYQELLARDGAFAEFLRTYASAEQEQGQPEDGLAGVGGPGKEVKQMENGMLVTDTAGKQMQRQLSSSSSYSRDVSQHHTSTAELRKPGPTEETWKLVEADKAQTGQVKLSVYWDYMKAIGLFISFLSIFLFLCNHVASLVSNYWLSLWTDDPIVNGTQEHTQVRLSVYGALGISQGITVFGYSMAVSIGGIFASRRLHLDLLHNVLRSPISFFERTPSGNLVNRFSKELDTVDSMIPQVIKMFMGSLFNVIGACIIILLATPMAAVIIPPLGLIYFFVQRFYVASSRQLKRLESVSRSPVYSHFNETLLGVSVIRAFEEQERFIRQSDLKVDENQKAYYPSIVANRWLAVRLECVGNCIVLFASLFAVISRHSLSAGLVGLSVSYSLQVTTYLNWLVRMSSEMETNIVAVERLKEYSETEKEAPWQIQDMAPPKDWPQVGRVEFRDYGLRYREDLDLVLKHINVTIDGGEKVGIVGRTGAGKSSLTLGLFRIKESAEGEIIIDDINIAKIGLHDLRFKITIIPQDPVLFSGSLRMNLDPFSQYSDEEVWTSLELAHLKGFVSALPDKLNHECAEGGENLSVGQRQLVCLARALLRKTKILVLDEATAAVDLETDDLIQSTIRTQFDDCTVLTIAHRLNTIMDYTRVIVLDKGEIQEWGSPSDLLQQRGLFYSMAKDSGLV
Experimental: All values reported as the mean ± standard error (SE) of three separate measurements. The statistical significance was calculated using unpaired, parametric, two-sided t tests. Labels: not significant (n.s.), P < 0.05 (*), P < 0.01 (**), P < 0.001 (***) P < 0.0001 (****). […] Rates of ATP hydrolysis were normalized to maximal activity. Data were fit to a modified version of the quadratic binding equation to account for free ligand depletion (Materials and Methods).
All protein purification steps were performed on ice or at 4 °C. Thawed cell pellets were resuspended with a handheld homogenizer (Polytron PT1200E) in a solution of 300 mM NaCl, 50 mM HEPES pH 8.0, 2 mM MgCl2, 2 mM dithiothreitol (DTT), and 20% glycerol with DNase I and protease inhibitors (1 µg/mL aprotinin, 0.6 mM benzamidine, 1 µg/mL leupeptin, 1 µg/mL pepstatin A, 1 mM phenylmethylsulfonyl fluoride, and 100 µg/mL soy trypsin inhibitor). Membranes were solubilized for 1.5 h by addition of 2% lauryl maltose neopentyl glycol and 0.2% cholesteryl hemisuccinate, after which insoluble material was removed by centrifugation for 40 min at 75,000 × g. Supernatant was mixed with GFP nanobody-conjugated Sepharose 4 Fast Flow resin (GE Healthcare) for 1.5 h, after which the slurry was packed into a column and washed with a solution of 0.06% digitonin, 150 mM NaCl, 50 mM HEPES pH 8.0, 2 mM MgCl2, 2 mM DTT, and 5% glycerol. PreScission protease was added to the column at a concentration of 0.35 mg/mL for 3 h to liberate MRP1 or Pgp from the GFP-nanobody resin. Eluate was passed through a glutathione sepharose resin to remove PreScission protease and concentrated with a 100 kDa molecular weight cutoff centrifugal filter. Concentrate was loaded onto a GE Healthcare Superose 6 size exclusion column equilibrated in 0.06% digitonin, 150 mM KCl, 50 mM Tris pH 8.0, 2 mM MgCl2, and 2 mM DTT. Peak fractions were collected, pooled, and concentrated for ATPase assays or freezing cryo-EM grids.
ATPase activity was measured by recording the rate of NADH consumption during ATP regeneration from ADP. […] ATPase activity was quantified by calculating the mean and SEM of at least three separate measurements from a single protein purification for each of bMRP1, hMRP1, and hPgp. Data were fit by nonlinear regression to the Michaelis–Menten equation using GraphPad Prism (Dotmatics).
0 = [R]tot × [L]tot - ([L]tot + [R]tot + Ki)[R·L] + [R·L]^2,
Range normalization factor = (Vmax - Vmin)

hMRP1 = assay: ATPase activity of detergent-solubilized hMRP1, inhibition by CPI1; format: biochemical, human; settings: Fig. 1C: 1 µM hMRP1, 4 mM ATP, CPI1 25-fold molar excess
Experimental: as §1, §2, §3

P-glycoprotein (Pgp) = settings: ref [26]–[28]; cited from earlier work
Description: Abrogation of cancer drug resistance by pharmacological inhibition of MRP1 has long been pursued ([10]). […] However, the majority of available MRP1 inhibitors are repurposed from other drug discovery efforts and thus have inherent off-target issues ([24], [25]).

| SMILES | inhibition of Pgp (in words) (Pgp) | Ki (bMRP1) | affinity of CPI1 for MRP1 (bMRP1; approximate, Fig. 1D, compared with LTC4) | inhibition of ATPase activity (in words) (bMRP1; bMRP1, Fig. 1C: 1 µM bMRP1, 4 mM ATP, CPI1 25-fold molar excess) | mode of inhibition (in words) (bMRP1; with respect to LTC4, inferred from shared binding site in structure and affinity) | inhibition of ATPase activity (in words) (hMRP1) | inhibition of P-glycoprotein (in words) (P-glycoprotein (Pgp)) |
| --- | --- | --- | --- | --- | --- | --- | --- |
| CC(C)C[C@@H]1NC(=O)[C@H](CC(N)=O)NC(=O)CNC(=O)[C@H](Cc2c[nH]c3ccccc23)NC(=O)[C@H](Cc2ccccc2)NC(=O)[C@@H](Cc2ccc(O)cc2)NC(=O)CSC[C@@H](C(=O)O)NC(=O)[C@H]([C@@H](C)O)NC(=O)[C@H](CO)NC(=O)[C@H](CC(=O)O)NC(=O)[C@H](Cc2ccccc2)NC(=O)[C@H](CCC(N)=O)NC(=O)[C@H](CCC(=O)O)NC(=O)[C@H](Cc2ccc(O)cc2)NC(=O)[C@H](Cc2ccc(O)cc2)NC(=O)[C@H](Cc2c[nH]c3ccccc23)NC(=O)[C@H](Cc2c[nH]cn2)NC1=O [CPI1] ({CH2CO}-[dY]FWGNLHWYYEQFDSTC-OH; thioether N-17; C-terminus assumed) | only modest inhibition of Pgp when applied at a 25-fold molar excess; also recorded: minimal inhibition of a related multidrug transporter P-glycoprotein | 70 ± 29 nM | ~ 100 nM | inhibited the ATPase activity of both human and bovine MRP1 | potent competitive inhibitor of LTC4 | robust inhibition of hMRP1 ATPase activity |  |
| O=C(NCCCN1CCOCC1)c1cnn2c(-c3ccccc3)cc(-c3ccccc3)nc12 [Reversan] |  |  |  |  |  |  | also inhibit P-glycoprotein |
